In PubChem BioAssay (NCI):
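GI50 = concentration required for 50% inhibition of growth. TGI marks complete inhibition of growth.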

Tests used:
Test in all cases: inhibition of tumour cell growth, NCI panel, 384-well format
DU-145 prostate = tested on: DU-145 prostate
SK-OV-3 ovarian = tested on: SK-OV-3 ovarian
PC-3 prostate = tested on: PC-3 prostate
MCF7 breast = tested on: MCF7 breast
NCI-H23 lung = tested on: NCI-H23 lung
MDA-MB-468 breast = tested on: MDA-MB-468 breast
UACC-257 melanoma = tested on: UACC-257 melanoma
NCI-H226 lung = tested on: NCI-H226 lung
SF-295 CNS = tested on: SF-295 CNS
A498 renal = tested on: A498 renal
ACHN renal = tested on: ACHN renal
RXF 393 renal = tested on: RXF 393 renal
HL-60(TB) leukemia = tested on: HL-60(TB) leukemia
HCT-15 colon = tested on: HCT-15 colon
HOP-92 NSCLC = tested on: HOP-92 NSCLC
CAKI-1 renal = tested on: CAKI-1 renal
OVCAR-3 ovarian = tested on: OVCAR-3 ovarian
NCI-H460 NSCLC = tested on: NCI-H460 NSCLC
T-47D breast = tested on: T-47D breast
MALME-3M melanoma = tested on: MALME-3M melanoma
OVCAR-5 ovarian = tested on: OVCAR-5 ovarian
MOLT-4 leukemia = tested on: MOLT-4 leukemia
MDA-MB-435 melanoma = tested on: MDA-MB-435 melanoma
MDA-MB-231 breast = tested on: MDA-MB-231 breast
OVCAR-8 ovarian = tested on: OVCAR-8 ovarian
HT29 colon = tested on: HT29 colon
NCI-H522 lung = tested on: NCI-H522 lung
786-0 renal = tested on: 786-0 renal
BT-549 breast = tested on: BT-549 breast

Question: With `COc1cc(C(=O)N[C@@H]2CCCN(C)C2)ccc1Nc1ncc2c(n1)N(C1CCCC1)CC(C)(C)C(=O)N2C` as the compound, how does the GI50 (DU-145 prostate) read?
Answer: The GI50 was 35.1 nM.

Question: What about the TGI (DU-145 prostate) of the same compound?
Answer: Its TGI is 206 nM.

Question: What about the GI50 (SK-OV-3 ovarian) of the same compound?
Answer: Its GI50 is 45.6 nM.

Question: And the TGI (SK-OV-3 ovarian)?
Answer: Its TGI is 1200 nM.

Question: What about the GI50 (PC-3 prostate) of the same compound?
Answer: Its GI50 is 62.1 nM.

Question: What about the TGI (PC-3 prostate) of the same compound?
Answer: The TGI was 2620 nM.

Question: What about the GI50 (MCF7 breast) of the same compound?
Answer: Its GI50 is 28.9 nM.

Question: What about the TGI (MCF7 breast) of the same compound?
Answer: The TGI was 1300 nM.

Question: And the GI50 (NCI-H23 lung)?
Answer: The GI50 was 17.6 nM.

Question: What about the TGI (NCI-H23 lung) of the same compound?
Answer: The TGI was 52.6 nM.

Question: What about the TGI (MDA-MB-468 breast) of the same compound?
Answer: Its TGI is 16.3 nM.

Question: And the GI50 (UACC-257 melanoma)?
Answer: The GI50 was 40.8 nM.

Question: What about the TGI (UACC-257 melanoma) of the same compound?
Answer: The TGI was 612 nM.

Question: What about the GI50 (NCI-H226 lung) of the same compound?
Answer: The GI50 was 1620 nM.

Question: And the TGI (NCI-H226 lung)?
Answer: Its TGI is 12000 nM.

Question: What about the GI50 (SF-295 CNS) of the same compound?
Answer: The GI50 was 38.6 nM.

Question: And the TGI (SF-295 CNS)?
Answer: Its TGI is 196 nM.

Question: And the GI50 (A498 renal)?
Answer: The GI50 was 206 nM.

Question: What about the TGI (A498 renal) of the same compound?
Answer: Its TGI is 1850 nM.

Question: What about the GI50 (ACHN renal) of the same compound?
Answer: Its GI50 is 541 nM.

Question: And the TGI (ACHN renal)?
Answer: Its TGI is 2230 nM.

Question: What about the GI50 (RXF 393 renal) of the same compound?
Answer: The GI50 was 20 nM.

Question: And the TGI (RXF 393 renal)?
Answer: Its TGI is 61.4 nM.

Question: And the GI50 (HL-60(TB) leukemia)?
Answer: Its GI50 is 14.3 nM.

Question: What about the TGI (HL-60(TB) leukemia) of the same compound?
Answer: Its TGI is 28.3 nM.

Question: What about the GI50 (HCT-15 colon) of the same compound?
Answer: The GI50 was 69.6 nM.

Question: And the TGI (HCT-15 colon)?
Answer: The TGI was 334 nM.

Question: What about the GI50 (HOP-92 NSCLC) of the same compound?
Answer: The GI50 was 88.1 nM.

Question: What about the TGI (HOP-92 NSCLC) of the same compound?
Answer: Its TGI is 989 nM.

Question: What about the GI50 (CAKI-1 renal) of the same compound?
Answer: The GI50 was 395 nM.

Question: What about the TGI (CAKI-1 renal) of the same compound?
Answer: Its TGI is 2640 nM.

Question: What about the GI50 (OVCAR-3 ovarian) of the same compound?
Answer: The GI50 was 18.1 nM.

Question: And the TGI (OVCAR-3 ovarian)?
Answer: Its TGI is 47.9 nM.

Question: And the GI50 (NCI-H460 NSCLC)?
Answer: The GI50 was 21.7 nM.

Question: And the TGI (NCI-H460 NSCLC)?
Answer: Its TGI is 47.9 nM.

Question: And the GI50 (T-47D breast)?
Answer: The GI50 was 81.5 nM.

Question: And the TGI (T-47D breast)?
Answer: Its TGI is 892 nM.

Question: And the GI50 (MALME-3M melanoma)?
Answer: Its GI50 is 45.9 nM.

Question: What about the TGI (MALME-3M melanoma) of the same compound?
Answer: The TGI was 251 nM.

Question: And the GI50 (OVCAR-5 ovarian)?
Answer: Its GI50 is 35.9 nM.

Question: What about the TGI (OVCAR-5 ovarian) of the same compound?
Answer: The TGI was 1220 nM.

Question: What about the GI50 (MOLT-4 leukemia) of the same compound?
Answer: Its GI50 is 13.3 nM.

Question: What about the TGI (MOLT-4 leukemia) of the same compound?
Answer: The TGI was 26.4 nM.

Question: What about the GI50 (MDA-MB-435 melanoma) of the same compound?
Answer: The GI50 was 19 nM.

Question: And the TGI (MDA-MB-435 melanoma)?
Answer: Its TGI is 40.6 nM.

Question: And the GI50 (MDA-MB-231 breast)?
Answer: The GI50 was 41.8 nM.

Question: And the TGI (MDA-MB-231 breast)?
Answer: Its TGI is 2220 nM.

Question: What about the GI50 (OVCAR-8 ovarian) of the same compound?
Answer: The GI50 was 22.3 nM.

Question: What about the TGI (OVCAR-8 ovarian) of the same compound?
Answer: Its TGI is 53.9 nM.

Question: What about the GI50 (HT29 colon) of the same compound?
Answer: Its GI50 is 21.2 nM.

Question: And the TGI (HT29 colon)?
Answer: Its TGI is 68.1 nM.

Question: And the GI50 (NCI-H522 lung)?
Answer: The GI50 was 17.1 nM.

Question: What about the TGI (NCI-H522 lung) of the same compound?
Answer: Its TGI is 37.5 nM.

Question: And the GI50 (786-0 renal)?
Answer: Its GI50 is 63.8 nM.

Question: And the TGI (786-0 renal)?
Answer: The TGI was 1440 nM.

Question: And the GI50 (BT-549 breast)?
Answer: The GI50 was 43.2 nM.

Question: What about the TGI (BT-549 breast) of the same compound?
Answer: The TGI was 309 nM.
